The values that follow come from paper PMC10942119, “S-nitrosylation of a receptor-like cytoplasmic kinase regulates plant immunity” (Science Advances, 2024).

For experiment [1], the target named is T1, BIK1 (MBP-BIK1) (Arabidopsis thaliana, UniProt O48814).
T1 construct: coding region of BIK1, HisMBP-tagged (pDEST-HisMBP; a 6xHis version from pDEST17 was also made), tag kept, E. coli BL21(DE3)
T1 sequence (O48814 1-395): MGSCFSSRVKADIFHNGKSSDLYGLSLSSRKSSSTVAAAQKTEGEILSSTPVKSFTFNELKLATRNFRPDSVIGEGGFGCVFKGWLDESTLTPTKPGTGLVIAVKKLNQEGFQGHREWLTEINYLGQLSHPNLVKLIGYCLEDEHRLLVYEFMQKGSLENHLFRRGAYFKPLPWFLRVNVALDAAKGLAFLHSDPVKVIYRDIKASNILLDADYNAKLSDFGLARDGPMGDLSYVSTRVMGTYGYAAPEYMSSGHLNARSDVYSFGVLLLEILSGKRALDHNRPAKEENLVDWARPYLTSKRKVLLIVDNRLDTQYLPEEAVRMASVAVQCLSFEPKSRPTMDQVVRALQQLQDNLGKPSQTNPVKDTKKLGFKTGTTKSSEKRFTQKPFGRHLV
Nature of the experiment: biotin switch. The class given is binding. To be noted: covalent; NO donor, S-nitrosylates cysteine; HEN buffer pH 7.7, 30 min, dark.

In experiment [2] the target is T1, BIK1 (MBP-BIK1). Nature of the experiment: biotin switch (anti-biotin Western blot); in vitro autophosphorylation assay. Type of experiment: biochemical. To be noted: covalent; NO donor, S-nitrosylates cysteine, reversed by DTT; raises autophosphorylation; HEN buffer pH 7.7, 30 min, dark.
Experiment [3] has as its target T2, BIK1 (MBP-BIK1) (Arabidopsis thaliana, UniProt O48814, K105E).
T2 construct: coding region of BIK1, HisMBP-tagged (pDEST-HisMBP; a 6xHis version from pDEST17 was also made), tag kept, E. coli BL21(DE3)
T2 sequence (O48814 1-395 K105E): T1 sequence (O48814 1-395) with K105E
As to the kind of experiment: biotin switch. To be noted: covalent; NO donor (donor not named for this figure; GSNO in the same passage); kinase-dead mutant, GSNO gave no autophosphorylation. The class given is binding.

Experiment [4] addresses T3, MBP-BIK1 (recombinant botrytis-induced kinase 1 fused to maltose binding protein) (Arabidopsis (Col-0 cDNA), UniProt O48814 1-395).
T3 construct: botrytis-induced kinase 1 (BIK1), Arabidopsis; coding region amplified from Col-0 cDNA; The text calls the protein in the pull-down pBIK1 as well; a phosphorylation state of the recombinant protein is not defined; also called recombinant BIK1; pDEST-HisMBP-BIK1; source: E. coli BL21(DE3), purified (amylose magnetic beads)
T3 sequence (looked up): T1 sequence (O48814 1-395)
As to the kind of experiment: pull-down; GST-RB-N on Glutathione Sepharose 4B incubated with MBP or MBP-BIK1 (untreated or pretreated with 10 uM GSNO or 100 uM DTT); 30 mM Hepes, 100 mM NaCl, 0.2% Triton X-100, pH 7.5; 4°C, 4 hours, dark; anti-MBP immunoblot. To be noted: both partners purified. In general terms: A western blot detects proteins with antibodies after separation by electrophoresis.

Experiment [5] has as its target T4, GSNO-pretreated MBP-BIK1 (S-nitrosylated BIK1, BIK1-SNO) (Arabidopsis (Col-0 cDNA), UniProt O48814 1-395, S-nitrosylation by GSNO pre-treatment; the paper assigns S-nitrosylation to Cys80).
T4 construct: botrytis-induced kinase 1 (BIK1), Arabidopsis; coding region amplified from Col-0 cDNA; same construct as m1; Same protein as m1 after treatment with the NO donor; which cysteines carried SNO in this sample was not determined in the pull-down itself
T4 sequence (looked up): T1 sequence (O48814 1-395)
The experiment is described as above. To be noted: both partners purified.

Where a chain is given by its changes, count along the chain named.

For `N[C@@H](CSN=O)C(=O)O` [Cys-NO], the biotin switch result in experiment [1] is “The natural NO donor, Cys-NO, also S-nitrosylated BIK1 in vitro”. Turning to `N[C@@H](CCC(=O)N[C@@H](CSN=O)C(=O)NCC(=O)O)C(=O)O` [GSNO], the “biotin switch (anti-biotin Western blot); in vitro autophosphorylation assay” value in experiment [2] is listed as “BIK1 was S-nitrosylated in a concentration-dependent fashion by GSNO”. In experiment [3], the biotin switch entry is listed as “NO induced S-nitrosylation of BIK1^K105E (fig. S6F)”.

B1: GST-RBOHD-N (GST-tagged N terminus of respiratory burst oxidase homolog D) (domain or fragment, Arabidopsis, UniProt Q9FIJ0 1-376, looked up)
chain: MKMRRGNSSNDHELGILRGANSDTNSDTESIASDRGAFSGPLGRPKRASKKNARFADDLPKRSNSVAGGRGDDDEYVEITLDIRDDSVAVHSVQQAAGGGGHLEDPELALLTKKTLESSLNNTTSLSFFRSTSSRIKNASRELRRVFSRRPSPAVRRFDRTSSAAIHALKGLKFIATKTAAWPAVDQRFDKLSADSNGLLLSAKFWECLGMNKESKDFADQLFRALARRNNVSGDAITKEQLRIFWEQISDESFDAKLQVFFDMVDKDEDGRVTEEEVAEIISLSASANKLSNIQKQAKEYAALIMEELDPDNAGFIMIENLEMLLLQAPNQSVRMGDSRILSQMLSQKLRPAKESNPLVRWSEKIKYFILDNWQR
notes: respiratory burst oxidase homolog D (RBOHD), Arabidopsis; 1128 bp make 376 codons; also called GST-RB-N; N-RBOHD; source: E. coli BL21(DE3), purified (Glutathione Sepharose 4B)
Consider B1, for which the binding result in experiment [4] and in experiment [5] was “binds” in each case.
